Series [1] has as its system DNA from A. xylinum ATCC 53582 and ATCC 23769. The series can be described thus: DNA-DNA hybridization of 17-mer oligonucleotide probes with HindIII-digested total DNA. The format is binding, Acetobacter xylinum. To be noted: stringent hybridization conditions; HindIII digest. How it is done:
Hybridization of the oligonucleotide probes with A. xylinum DNA was carried out using the eight oligonucleotides that were thus synthesized. […] In order to accomplish these studies, total DNA from A. xylinum ATCC 53582, A. xylinum ATCC 23769, and E. coil HB101 (a common strain of E. coli used in recombinant DNA experiments) was digested with HindIII and the fragments were separated on an agarose gel. After separation, the fragments were transferred by capillary action to a nylon membrane (GeneScreen; NEN Research Products) according to the procedure of Reed and Mann (1985). The DNA thus transferred was next hybridized with the ^32P-labeled oligonucleotide of the invention using standard procedures. Hybridization was accomplished in a solution with 5×SSC [1×SSC: 0.15M NaCl, 0.015M sodium citrate] at 45° C. for 16-24 hours. The filters were then washed with a solution containing reduced salt concentration. In all cases, the hybridization temperature was 5-7° C. below the dissociation temperature as described by Suggs, et al. (1981) applying the formula Td=2(A+T)+4(G+C).

In series [2] the target is T1, 83 kd polypeptide of cellulose synthase (Komagataeibacter xylinus, UniProt P0CW87).
T1 construct: endogenous in cells; host or cells: Acetobacter xylinum ATCC 53582; membranes solubilized with detergent, enzyme purified by cellulose entrapment
T1 sequence (P0CW87 1-723): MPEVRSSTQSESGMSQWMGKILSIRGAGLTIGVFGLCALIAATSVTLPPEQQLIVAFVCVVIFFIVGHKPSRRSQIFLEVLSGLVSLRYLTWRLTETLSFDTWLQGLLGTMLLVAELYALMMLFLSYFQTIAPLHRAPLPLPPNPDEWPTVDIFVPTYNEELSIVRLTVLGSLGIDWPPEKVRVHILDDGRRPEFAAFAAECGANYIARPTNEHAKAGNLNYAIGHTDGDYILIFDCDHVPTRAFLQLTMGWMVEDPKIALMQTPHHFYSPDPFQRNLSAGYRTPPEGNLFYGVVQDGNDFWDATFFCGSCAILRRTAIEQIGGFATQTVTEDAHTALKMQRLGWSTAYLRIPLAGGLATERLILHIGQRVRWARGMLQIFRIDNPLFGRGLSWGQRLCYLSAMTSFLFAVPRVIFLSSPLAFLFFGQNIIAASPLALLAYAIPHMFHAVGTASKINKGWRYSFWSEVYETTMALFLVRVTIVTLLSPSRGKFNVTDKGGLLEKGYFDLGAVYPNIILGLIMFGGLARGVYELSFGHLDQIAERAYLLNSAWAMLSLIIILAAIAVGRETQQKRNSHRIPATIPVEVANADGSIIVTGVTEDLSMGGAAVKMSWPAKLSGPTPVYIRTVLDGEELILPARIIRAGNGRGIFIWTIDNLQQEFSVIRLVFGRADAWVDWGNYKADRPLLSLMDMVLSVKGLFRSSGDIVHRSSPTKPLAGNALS
T1 sequence (P0CW87 742-1550 partner limits assumed): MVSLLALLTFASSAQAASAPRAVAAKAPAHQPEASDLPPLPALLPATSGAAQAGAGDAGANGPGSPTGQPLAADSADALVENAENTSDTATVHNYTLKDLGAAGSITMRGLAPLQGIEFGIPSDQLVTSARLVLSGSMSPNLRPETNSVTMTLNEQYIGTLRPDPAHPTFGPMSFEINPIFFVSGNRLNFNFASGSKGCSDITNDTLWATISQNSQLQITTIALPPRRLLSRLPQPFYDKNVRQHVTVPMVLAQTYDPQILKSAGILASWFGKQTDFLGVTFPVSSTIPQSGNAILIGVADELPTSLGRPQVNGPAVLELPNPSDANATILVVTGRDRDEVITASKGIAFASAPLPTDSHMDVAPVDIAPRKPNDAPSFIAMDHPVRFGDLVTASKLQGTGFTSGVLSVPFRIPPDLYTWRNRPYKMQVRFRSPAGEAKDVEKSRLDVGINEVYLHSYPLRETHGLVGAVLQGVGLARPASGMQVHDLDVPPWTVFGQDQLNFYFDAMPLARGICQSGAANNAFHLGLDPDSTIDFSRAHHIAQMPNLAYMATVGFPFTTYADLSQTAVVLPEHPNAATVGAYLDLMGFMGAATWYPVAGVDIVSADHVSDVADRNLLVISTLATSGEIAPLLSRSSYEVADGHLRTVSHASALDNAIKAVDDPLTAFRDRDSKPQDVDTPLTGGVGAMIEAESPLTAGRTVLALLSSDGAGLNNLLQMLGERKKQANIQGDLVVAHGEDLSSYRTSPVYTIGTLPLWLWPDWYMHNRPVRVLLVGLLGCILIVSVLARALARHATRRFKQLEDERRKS
The experiment in a line: Photoaffinity labeling of purified cellulose synthase with [β-32P]5N3UDP-glc. In kind it is binding, Acetobacter xylinum. How it is done:
In addition to 20 μl of activator for cellulose synthase, each reaction mixture contained 50 mM Tris-HCl, 10 mM MgCl2, 1 mM CaCl2, 1 mM EDTA, the indicated protein quantity of enzyme sample, and 20 μM of [β-^32P]5N3UDP-glc (specific activity, 24 mCi/μmol) in a final reaction volume of 50 μl at pH 8.0-8.5. For competition experiments, the competitor, namely UDP-glc, was added at final concentrations of 0, 50, 100, and 300 μM, respectively. For saturation studies, [B-^32P]5N3UDP-glc was added at final concentrations of 20, 50, 100, 300 and 500 μM, respectively. […] Reactions were terminated by the addition of 0.3 ml of 7% perchloric acid. […] The Coomassie blue stained gel was dried and autoradiographed. Autoradiography was performed at −80° C. with Kodak X-Omat AR film and a Dupont Cronex intensifying screen. The molecular mass standards (Bio-Rad) were phosphorylase b (97kd), bovine serum albumin (66 kd), ovalbumin (45 kd), and carbonic anhydrase (31 kd).
The quantitation of the autoradiographs was measured by grey value discrimination of a digitized image (recorded on a Kontron/Zeiss IBAS Image Processing System).

Series [3] concerns the target cellulose synthase of Acetobacter xylinum, Triton X-100-solubilized enzyme preparation (TS) (Acetobacter xylinum ATCC 53582). The series can be described thus: Con A-Sepharose 4B column chromatography of TS; bound enzyme eluted with 0.3 M methyl alpha-D-mannopyranoside.
In the next series the target is T2, cellulose synthase (Komagataeibacter xylinus, UniProt P0CW87).
T2 construct: endogenous in cells; host or cells: Acetobacter xylinum; washed or trypsinized membranes, Triton X-100, n-octyl glucoside or digitonin extracts, entrapment pellets EP1 and EP2
T2 sequence (P0CW87 1-723): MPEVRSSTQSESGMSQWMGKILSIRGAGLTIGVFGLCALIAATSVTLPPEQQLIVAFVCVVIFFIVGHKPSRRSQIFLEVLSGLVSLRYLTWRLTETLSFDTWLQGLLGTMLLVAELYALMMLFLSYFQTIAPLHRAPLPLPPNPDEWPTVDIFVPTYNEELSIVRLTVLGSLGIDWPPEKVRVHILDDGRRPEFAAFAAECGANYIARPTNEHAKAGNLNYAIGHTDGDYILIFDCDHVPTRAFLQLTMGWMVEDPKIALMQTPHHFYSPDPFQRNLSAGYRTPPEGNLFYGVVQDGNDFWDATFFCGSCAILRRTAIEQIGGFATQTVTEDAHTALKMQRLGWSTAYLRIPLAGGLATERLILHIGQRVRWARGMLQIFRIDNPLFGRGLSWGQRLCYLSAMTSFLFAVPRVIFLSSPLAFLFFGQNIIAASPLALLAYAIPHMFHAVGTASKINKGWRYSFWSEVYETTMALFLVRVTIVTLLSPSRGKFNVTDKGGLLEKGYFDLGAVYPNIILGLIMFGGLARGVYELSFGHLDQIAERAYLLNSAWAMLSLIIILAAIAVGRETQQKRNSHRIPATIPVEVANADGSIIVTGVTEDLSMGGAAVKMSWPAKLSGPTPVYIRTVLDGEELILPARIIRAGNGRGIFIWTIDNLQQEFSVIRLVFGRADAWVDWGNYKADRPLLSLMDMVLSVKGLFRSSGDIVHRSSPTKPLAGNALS
T2 sequence (P0CW87 742-1550 partner limits assumed): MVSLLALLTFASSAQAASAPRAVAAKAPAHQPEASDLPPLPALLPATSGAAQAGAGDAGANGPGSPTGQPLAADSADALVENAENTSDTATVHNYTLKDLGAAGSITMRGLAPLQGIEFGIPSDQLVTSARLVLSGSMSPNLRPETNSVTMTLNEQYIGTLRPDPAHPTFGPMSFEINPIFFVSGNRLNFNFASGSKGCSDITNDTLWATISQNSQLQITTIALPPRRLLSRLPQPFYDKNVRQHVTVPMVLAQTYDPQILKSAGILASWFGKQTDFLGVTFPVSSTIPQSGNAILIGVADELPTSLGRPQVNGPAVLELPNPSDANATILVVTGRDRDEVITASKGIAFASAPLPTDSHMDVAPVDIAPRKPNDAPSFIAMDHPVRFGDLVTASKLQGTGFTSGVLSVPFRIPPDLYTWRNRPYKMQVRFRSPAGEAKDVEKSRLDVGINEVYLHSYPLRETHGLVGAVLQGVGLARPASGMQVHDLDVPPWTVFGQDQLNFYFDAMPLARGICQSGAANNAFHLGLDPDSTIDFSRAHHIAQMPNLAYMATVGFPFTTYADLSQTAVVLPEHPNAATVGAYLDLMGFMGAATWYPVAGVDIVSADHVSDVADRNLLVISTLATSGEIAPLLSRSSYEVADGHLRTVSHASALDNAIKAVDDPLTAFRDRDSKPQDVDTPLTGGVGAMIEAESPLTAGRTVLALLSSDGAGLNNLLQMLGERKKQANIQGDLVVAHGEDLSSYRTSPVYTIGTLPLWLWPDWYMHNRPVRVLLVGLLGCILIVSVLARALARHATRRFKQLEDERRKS
The experiment in a line: Cellulose synthase enzyme assay (UDP-[14C]glc into alkali-insoluble material). In kind it is biochemical, Acetobacter xylinum. How it is done:
Enzyme Assay—Assays contained a final volume of […]: 20 μl of 0.5 M Tris-HCl (pH 9.6) containing 50 mM MgCl2 and 5 mM EDTA, 20 μl of 0.1 M MgCl2, 20 μl of 10 MM CaCl2, 25 μl of TME buffer, 25 μl of H2O, 20 μl of crude Gx, and 50 μl of enzyme sample. […] The reaction was stopped with 2 ml of 0.5 M NaOH, and the radioactivity in alkali-insoluble materials was counted after filtration through glass-fiber filters, as described in detail (Bureau and Brown 1987).
Protein Determination—Protein concentrations were determined according to the method of Bradford (1976), using the protein assay kit of Bio-Rad Laboratories. A modification of the Lowry procedure (Markwell 1978) was used only with membrane preparations. In both cases, bovine serum albumin was used as a standard.

Consider 5′-ATGTCICAGTGGATGGG-3′ [83-1G], for which the “hybridization (homology) with A. xylinum DNA” value in series [1] is listed as “showed homology with a single HindIII fragment”.
As for `[N-]=[N+]=Nc1cn([C@@H]2O[C@H](COP(=O)(O)OP(=O)(O)O[C@H]3O[C@H](CO)[C@@H](O)[C@H](O)[C@H]3O)[C@@H](O)[C@H]2O)c(=O)[nH]c1=O` [[β-^32P]5N3UDP-glc], in series [2] (83 kd protein band), the “probe concentration at which saturation of photoinsertion was being obtained” value is given as “above 100 μM”. Further, in series [2] (probe 20-500 μM, 83 kd polypeptide, read-out: kd value, saturation of cellulose synthase photolabeling), the Kd stood at 68 µM.
Consider `Nc1nc2c(ncn2[C@@H]2O[C@@H]3COP(=O)(O)O[C@H]4[C@@H](O)[C@H](n5cnc6c(=O)[nH]c(N)nc65)O[C@@H]4COP(=O)(O)O[C@H]3[C@H]2O)c(=O)[nH]1` [c-di-GMP, bis-(3′,5′)-cyclic diguanylic acid], for which the “increase of photoincorporation into the 83 kd band in the presence of activator” value in series [2] (purified preparation, FIG. 8 lane 6 vs lane 5) turned out to be 45%.
“Concanavalin A (Con A) Sepharose 4B (from UniProt P02866 30-281)”: the total enzyme activity recovered on elution from the Con A-Sepharose column in series [3] is over 90%.

B1: trypsin: trypsin (EC 3.4.21.4), Sigma (protein, UniProt P00760 24-246, looked up)
Serine protease 1: IVGGYTCGANTVPYQVSLNSGYHFCGGSLINSQWVVSAAHCYKSGIQVRLGEDNINVVEGNEQFISASKSIVHPSYNSNTLNNDIMLIKLKSAASLNSRVASISLPTSCASAGTQCLISGWGNTKSSGTSYPDVLKCLKAPILSDSSCKSAYPGQITSNMFCAGYLEGGKDSCQGDSGGPVVCSGKLQGIVSWGSGCAQKNKPGVYTKVCNYVSWIKQTIASN
For B1, the “effect of trypsin on enzyme activity of washed membranes or TS” value with cellulose synthase (30 minutes at 25° C.) is “did not effect enzyme activity”. Further, in the series with cellulose synthase (1 hour at 25° C.), the “effect of trypsin on enzyme activity of the EP1 fraction from DS” value is on record as “enzyme activity was still maintained”.

The values above are taken from patent US6541238B1, “Recombinant cellulose synthase” (Board of Regents, The University of Texas Systems, priority 1990, dated 2003).
